According to US20150335678A1, “METHOD OF ACTIVATING STEM CELLS IN AN ANIMAL AND THE USE OF CHLORINE DIOXIDE FOR PREPARING MEDICINES FOR ACTIVATING STEM CELLS IN AN ANIMAL” (priority 2012, published 2015):
Marks after values point to notes of the source that are not given here.

How the values were obtained:
cartilage of hip joint = test: Hip arthritis patients: thickness of cartilage of hip joint by ultrasonic scanning; type: in vivo, human; conditions: listed as activating agent of stem cells comprising a chlorine dioxide; for Medical cartilage thickness mean(±SD): before administration 0.51 (±0.07); for Lateral cartilage thickness mean(±SD): before administration 0.61 (±0.09)
Description: To smear the solution over the skin of hip arthritis with swab immediately, once a day for consecutive 20 days. Then stop the administration for three months, and then began continuous treatment for 20 days. Clean and disinfect the regions before treatment, conduct local anesthetic 30 minutes before the operation.
The subjects who joined in the treatment group as volunteers consisted of 11 patients with hip arthritis (5 male, aged from 40 to 70 years old and 6 female, aged from 40 to 65 years old.). Case histories were recorded at the third and the sixth month by collecting personal and data of human body (height, body weight, BMI, blood pressure and heart rate.) Then evaluate the following parameters:
Thickness of cartilage of hip joint: measured by ultrasonic scanning at the core, the center and the lateral.

[1] = system: CD34-positive/CD31-positive mononuclear cells; test: CD34-positive/CD31-positive mononuclear cells in peripheral blood of lower limb DVT patients, flow cytometry; type: in vivo, human; conditions: before administration 0.28 ± 0.30, diluted solution 10 ml/body/day femoral artery puncture, 14 days
Description: The subjects consisted of 14 male and 6 female lower limb DVT patients with the unilateral limb suffer from the illness, aged from 59 to 76 years old (average age: 67.2 years old). The purpose of the clinical test was explained to all subjects and their consent was obtained before conducting the clinical test.
The first solution was a mixed solution made of sodium chlorite with the concentration of 7.47% and sodium chloride with the concentration of 1.59% with deionized water; the second solution was made of citric acid with the concentration of 16.7% with deionized water. Same volume of solutions were taken out from different vessels with different volumes and mixed up. […]
Five ml of peripheral blood was collected from the median cubital vein of the forearm of each patient using low molecular weight heparin anticoagulant before administration (before initial administration) and on day 7 and 14 after administration, and the collected blood was immediately stored at 4° C. and measured within 6 hours after collection. […]
CD34-positive mononuclear cells/CD31-positive mononuclear cells were isolated by double immunofluorescent using flow cytometry. […] Next, CD34/CD31-positive mononuclear cells were isolated and counted by flow cytometry. The ratio (%) of CD34/CD 31-positive mononuclear cells among the mononuclear cells was calculated according to the following formula. […]

Helicobacter pylori = test: hp-positive gastric ulcer patients: HP negative conversing, rapid urease test; type: in vivo, human; conditions: 30 patients per group
Description: The subjects consisted of 90 gastric ulcer patients (50 male and 40 female) of hp-positive aged from 33 to 75 years old (average age: 41 years old). The subjects were randomly assigned to treatment group and control group with 30 patients in treatment group and 30 in control group 1 and 30 in control group 2 respectively.
Allow the solution to mix for 3-5 minutes. The capsule that containing activating agent of stem cells was made by injecting the mixed solution into the soft capsule of number 0.
The capsule that containing activating agent of stem cells was administered to the patients in treatment group three times a day and a pill each time; 30 minutes before meals, patients in control group 1 took orally 15 mg colloidal bismuth and 100 mg pectin tinidazole for three times a day. And 20 mg Omeprazole two times a day; patients in control group 2 took orally […] amoxicillin and 500 mg clindamycin three times a day and 20 mg esomeprazole twice a day before meals. Both groups were administered for a consecutive week. To observe the improvement of the clinical symptoms of the three cases two weeks after administration, such as stomachache, nausea and sour regurgitation. […]
Criteria for measuring the effects: the changes of conditions before and after treatment and the time the symptoms disappear were recorded precisely. […]

[2] = system: cerebral ischemia/reperfusion injury model rats; test: Neural function score in cerebral ischemia/reperfusion injury model (Example 3); type: in vivo, Sprague-Dawley rats; conditions: for neural function score (median): n=15, scale 0 normal to 5
Description: Male Sprague-Dawley rats with the age of 12 weeks and weight of 250^˜280 g were used in the experiment after acclimating for a week.
A middle cerebral artery occlusion model was first established in compliance with the method of Longa E Z et al. (Longa E Z, et al. Reversible middle cerebral artery occlusion without craniectomy in rats. Stroke 20:84-91, 1989). More specifically, 0.36 g/kg of 10% chloral hydrate was administered intraperitoneally to rats which had been fasted for 12 hours (although given free access to water) to anesthetize the rats. Next, a midline incision was made in the neck to expose the right common carotid artery. Then, the internal carotid artery and external carotid artery were separated, the posterior carotid artery, which is a branch of the external carotid artery, and the thyroidea arteria were coagulated and severed, the external carotid artery was ligated at the branch of the lingual artery and maxillary artery, a small puncture was formed in the external carotid artery, 4-0 Nylon suture was passed through the common carotid artery from the puncture, and gradually inserted into the internal carotid artery until there was resistance. The length of the Nylon suture was about 18^˜20 mm from the branch of the common carotid artery. As a result of occluding the middle cerebral artery with Nylon suture, an ischemic state was applied for 2 hours to create a middle cerebral artery occlusion model.
A cerebral ischemia/reperfusion injury model was established by removing the Nylon suture from the middle cerebral artery of the occlusion model and following reperfusion of blood.
The first solution was a mixed solution made of sodium chlorite with the concentration of 7.47% and sodium chloride with the concentration of 1.59% with deionized water; the second solution was made of citric acid with the concentration of 16.7% with deionized water. Same volume of solutions were taken out from different vessels with different volumes and mixed up. Allow the solution to mix for 3-5 minutes and dilute it five times with normal saline, and then filter it with 0.22 μm filter membrane of double-deck. The solution was immediately put into injector. The solution was prepared once being used.
Treatment group (120 rats): A cerebral ischemia/reperfusion injury model was established for the rats already. To administer chlorine dioxide solution everytime that prepared from procedure (3) through carotid artery after the second day the model has established, once a day for total ten days.
Neural function scores were evaluated once a day after the ischemia/reperfusion injury model established in the 15 rats per group. The scores of neural function disorders were evaluated using the following criteria in compliance with the method of Longa E Z (Longa E Z, et al. Reversible middle cerebral artery occlusion without craniectomy in rats. Stroke 20:84-91, 1989). The results were shown as median.
1: Contralateral limb bending on infarction focus
2: Contralateral limb on infarction focus becomes asthenic state when tail is pulled backward
3: Turning toward opposite side of infarction focus when tail is pulled
4: Spontaneous turning towards opposite side of infarction focus
5: Loss of spontaneous movement

## [O][Cl+][O-] [chlorine dioxide solution, chlorine dioxide]
Cartilage of hip joint; sixth month
  Medical cartilage thickness mean(±SD): 0.66 (±0.16) mm
  Lateral cartilage thickness mean(±SD): 0.73 (±0.11) mm
  Central cartilage thickness, percentage increase: 12.7%
  Lateral cartilage thickness, percentage increase: 8.9%
  Medical cartilage thickness, percentage increase: 11.9%
Cartilage of hip joint; sixth month, before administration 0.73 (±0.09)
  Central cartilage thickness mean (±SD): 0.89 (±0.09) mm
Cartilage of hip joint; third month, ultrasound, 11 hip arthritis patients, topical with DMSO
  Medical cartilage thickness mean(±SD): 0.59 (±0.08) mm
Cartilage of hip joint; third month
  Lateral cartilage thickness mean(±SD): 0.67 (±0.10) mm
  Central cartilage thickness, percentage increase: 8.2%
  Lateral cartilage thickness, percentage increase: 9.8%
  Medical cartilage thickness, percentage increase: 15.6%
[1]; Day 7 after administration, n=20
  CD34-Positive/CD31-Positive Mononuclear Cells (ratio among mononuclear cells, mean±SD): 0.85 ± 0.51 %
[1]; Day 14 after administration, n=15
  CD34-Positive/CD31-Positive Mononuclear Cells (ratio among mononuclear cells, mean±SD): 1.1 ± 0.65 %
Helicobacter pylori; rapid urease test after 30 days
  HP negative conversing (%): 96.6%
Helicobacter pylori; rapid urease test of gastric mucosa after 30 days
  HP negative conversing (No.): 29
[2]; Day 1, model group 3, NaClO2 7.47% + citric acid 16.7% 1:1 diluted five times, carotid artery once a day for ten days after the second day
  neural function score (median): 3
[2]; Day 2, model group 3, diluted solution via carotid artery once a day for ten days after the second day
  neural function score (median): 3
[2]; Day 3, model group 3, diluted solution via carotid artery once a day for ten days after the second day
  neural function score (median): 2
[2]; Day 4, model group 2, diluted solution via carotid artery once a day for ten days after the second day
  neural function score (median): 2
[2]; Day 5, model group 2, diluted solution via carotid artery once a day for ten days after the second day
  neural function score (median): 1
[2]; Day 6, model group 2, diluted solution via carotid artery once a day for ten days after the second day
  neural function score (median): 1
[2]; Day 7, model group 2, diluted solution via carotid artery once a day for ten days after the second day
  neural function score (median): 1
[2]; Day 8, model group 2, diluted solution via carotid artery once a day for ten days after the second day
  neural function score (median): 0
[2]; Day 9, model group 1, diluted solution via carotid artery once a day for ten days after the second day
  neural function score (median): 0
[2]; Day 10, model group 1, diluted solution via carotid artery once a day for ten days after the second day
  neural function score (median): 0
[2]; Day 11, model group 1, diluted solution via carotid artery once a day for ten days after the second day
  neural function score (median): 0
[2]; Day 12, model group 1, diluted solution via carotid artery once a day for ten days after the second day
  neural function score (median): 0
[2]; Day 13, model group 1, diluted solution via carotid artery once a day for ten days after the second day
  neural function score (median): 0
[2]; Day 14, model group 1, diluted solution via carotid artery once a day for ten days after the second day
  neural function score (median): 0
[2]; Day 15, model group 1, diluted solution via carotid artery once a day for ten days after the second day
  neural function score (median): 0
[2]; Day 16, model group 1, diluted solution via carotid artery once a day for ten days after the second day
  neural function score (median): 0
[2]; Day 17, model group 1, diluted solution via carotid artery once a day for ten days after the second day
  neural function score (median): 0
[2]; Day 18, model group 1, diluted solution via carotid artery once a day for ten days after the second day
  neural function score (median): 0
[2]; Day 19, model group 1, diluted solution via carotid artery once a day for ten days after the second day
  neural function score (median): 0
[2]; Day 20, model group 1, diluted solution via carotid artery once a day for ten days after the second day
  neural function score (median): 0
[2]; Day 21, model group 1, diluted solution via carotid artery once a day for ten days after the second day
  neural function score (median): 0**
[2]; significant particularly on day 7, 8, 9 and 16 after operation
  onset of recovery of neural function, treatment group vs model group: earlier than that in the model group
